{"source": "patent US10500198B2", "about": "“Bis-benzylidine piperidone proteasome inhibitor with anticancer activity” (The Johns Hopkins University, priority 2013, dated 2019)", "key": {"[1]": {"tested_on": "polyubiquitinated proteins, p53 and p21 in HeLa cells", "experiment": "Immunoblot of HeLa cell lysates", "format": "cell-based, human", "procedure": "FIGS. 1 A-D show percent cell viability of RPMI-8226, ANBL6, and their respective in vitro selected bortezomib-resistant cell lines RPMI-8226-V10R and ANBL6-V10R as a function of 48 hr treatment with the indicated compounds. FIGS. 1 E-H show percent cell viability of indicated MM cell lines as a function of 48 hr treatment with the indicated compounds. […] Actin was used as a loading control. […] In FIG. 9C-E, purified 20S proteasomes were treated for 30 min with or without compounds (1 μM) prior to the addition of the specific fluorogenic substrate for chymotryptic (9C), tryptic (9D) or PGPH (9E) hydrolytic proteasome capacities. Mean±SD fluorescence associated with AMC released from the substrate was measured at 45 min. […] DMSO was added to all samples to a final concentration of 0.1% (upper panel). The effect of DMSO is highlighted by including ubiquitin—AMC (0.5 μM) hydrolysis with 2 nM UCH37 lacking DMSO (orange, bottom panel). In FIG. 9H, purified 19S RP (500 nM) in buffer was treated with corresponding compounds 30 min at 37° C. and AMC cleavage was measured with a fluorometer for 20 min. Ubal was used as a positive control.\nTotal cellular protein (10-20 μg) from each sample was subjected to SDS-PAGE, transferred to PVDF membranes and analyzed by Western blot. […]"}, "purified 20S proteasomes": {"biological_target": "purified 20S proteasomes (Homo sapiens, UniProt P28072+P28074+Q99436)", "experiment": "20S proteolytic activity assay", "format": "biochemical", "conditions": "1 μM; for chymotryptic activity of the 20S proteasome (Suc-LLVY-AMC): 30 min", "procedure": "Actin was used as a loading control. […] In FIG. 9C-E, purified 20S proteasomes were treated for 30 min with or without compounds (1 μM) prior to the addition of the specific fluorogenic substrate for chymotryptic (9C), tryptic (9D) or PGPH (9E) hydrolytic proteasome capacities. […] DMSO was added to all samples to a final concentration of 0.1% (upper panel). The effect of DMSO is highlighted by including ubiquitin—AMC (0.5 μM) hydrolysis with 2 nM UCH37 lacking DMSO (orange, bottom panel). In FIG. 9H, purified 19S RP (500 nM) in buffer was treated with corresponding compounds 30 min at 37° C. and AMC cleavage was measured with a fluorometer for 20 min. Ubal was used as a positive control.\nRelease of free AMC by the enzyme reaction was determined by measuring its fluorescence at 380 nm (excitation) and 440 nm (emission). The graphs shown are representative of at least three independent determinations and each data point is the mean of ±SD of triplicate determinations.\n20S proteasome cleaves the chymotryptic substrate and releases fluorescent AMC."}, "[2]": {"tested_on": "TNFα-induced NFκB activation in 293 cells", "experiment": "NFκB/FL reporter assay", "format": "cell-based", "conditions": "TNFα 10 ng/ml, 7 h", "procedure": "293 cells transiently transfected with either NFκB/FL (firefly luciferase reporter construct under control of an NFκB-driven promoter) or control CMV promoter-driven FL reporter construct were treated with compounds and TNFα (10 ng/ml) for 7 h. Upon the addition of luciferin, bioluminescence was measured in cell lysates using a luminometer. Results can be seen in FIG. 20.\n293 cells transiently transfected with either NFκB/FL or control FL reporter genes were treated with compounds and TNFα (10 ng/ml) for 7 h. Upon the addition of luciferin, bioluminescence was measured in cell lysates using a luminometer."}, "cancer cells": {"tested_on": "cancer cells", "experiment": "Antiproliferative activity against cancer cells (design rationale)", "format": "cell-based", "description": "We used Chloro and Nitro functional groups as substituent's on the aromatic ring due to their greater electron withdrawing effect at ortho (or) para (or) meta (or) both positions along with different amino acid linkages on bis-benzylidine piperidone moiety. Amino acids were chosen based in their physical characteristics like very hydrophobic (phenylalanine), strongly basic and hydrophilic (lysine), basic and hydrophilic (histidine) and amphiphilic (glycine). Commercially available Fmoc and Boc protected amino acids were used in the synthesis, and they were evaluated for their antiproliferatory activity against cancer cells.\nNext we synthesized another set of compounds by converting free amine functionality to its Acetate (Ac), Acrolyl (Acr) and Benzoyl […] analogs as these units are part of many anticancer drugs because of their smaller size and feasibility to form inter molecular hydrogen bonds with proteins.\nIn the RA195 molecule two amino functionalities of lysine can provide more flexibility to make better analogs."}}}
{"smiles": "Cl.NCCCC[C@H](NC(=O)OCC1c2ccccc2-c2ccccc21)C(=O)N1C/C(=C\\c2ccc(Cl)c(Cl)c2)C(=O)/C(=C/c2ccc(Cl)c(Cl)c2)C1", "note": "[RA195]", "values": [{"measurement": "levels of p53 and p21 proteins", "setting": "[1]; 1 μM, 12 h", "value": "elevated the levels of p53 and p21 proteins"}, {"measurement": "poly-ubiquitinated (Poly UB) proteins", "setting": "[1]; 1 μM, 12 h", "value": "caused the accumulation of poly-ubiqutinated (Poly UB) proteins"}, {"measurement": "chymotryptic activity of the 20S proteasome (Suc-LLVY-AMC)", "setting": "purified 20S proteasomes", "value": "do not"}, {"measurement": "TNFα-induced NFκB activation", "setting": "[2]", "value": "inhibited TNFα-induced NFκB activation"}, {"measurement": "antiproliferative potency among analogs", "setting": "cancer cells", "value": "higher potency"}]}
{"smiles": "Cl.N[C@@H](Cc1ccccc1)C(=O)N1CC(=Cc2ccc(Cl)c(Cl)c2)C(=O)C(=Cc2ccc(Cl)c(Cl)c2)C1", "note": "[RA190, 3,5-bis(3,4-dichlorobenzylidene)-1-(S-2-amino-3-phenyl)-piperidin-4-one-HCl salt]", "values": [{"measurement": "levels of K48-linked polyubiquitinated proteins", "setting": "[1]; 4 hr", "value": "dramatically increased"}, {"measurement": "chymotryptic activity of the 20S proteasome (Suc-LLVY-AMC)", "setting": "purified 20S proteasomes", "value": "do not"}, {"measurement": "CP chymotryptic, tryptic, and PGPH activities", "setting": "purified 20S proteasomes; 30 min pre-treatment", "value": "does not inhibit"}, {"measurement": "TNFα-induced NFκB activation", "setting": "[2]", "value": "Inhibits TNFα-Induced NFκB Activation"}, {"measurement": "antiproliferative potency among analogs", "setting": "cancer cells", "value": "higher potency"}]}
